Some test systems named below: ACHN; HCC 2998; HL-60; HOP-92; HT-29; IGROV-1; K562; MDA-MB-435; OVCAR-4; PC-3; RXF 393; SF-295; SF-539; SK-MEL-28; SK-OV-3; SN12C; T47D; UACC-257; UACC-62.
Common to all, as to test: NCI anticancer screen, dose series, 48 h

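Where inhibition never reached the appropriate level, the endpoint shown equals the highest concentration tested. Otherwise, values were interpolated linearly from a five-concentration, 48-hour dose response in 96-well plates. GI50 is the concentration that inhibits growth by half.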 The source made the active and inactive calls. Rule as the data show it: active = GI50 up to about 1.1 µM and inactive = higher.

As for `CN(C)c1ccc(C=c2c3ccccc3n3c2c2ccccc2[n+]3C)cc1`, the GI50 in the test with ACHN was 0.867 µM (active); in the test on HCC 2998, 0.671 µM (active); in the test on HL-60, 0.051 µM (active); with HOP-92, 0.421 µM (active); in the test on HT-29 it was 0.689 µM (active); in the test on IGROV-1, 0.82 µM (active). The GI50 is 0.134 µM (active) with K562; 0.428 µM (active) in the test on MDA-MB-435; 1.18 µM (inactive) with OVCAR-4; 0.353 µM (active) in the test on PC-3; 1.52 µM (inactive) with RXF 393; 1.52 µM (inactive) in the test on SF-295. Also, the GI50 was 0.513 µM (active) with SF-539; 0.521 µM (active) in the test with SK-MEL-28; 2.64 µM (inactive) in the test on SK-OV-3; 0.518 µM (active) with SN12C; 0.248 µM (active) in the test on T47D; 0.33 µM (active) in the test with UACC-257. Further, the GI50 with UACC-62 is 0.305 µM (active).

For the compound `CO[C@H]1C=CO[C@@]2(C)Oc3c(C)c(O)c4c(O)c(c(CN5CCN(C)CC5)c(O)c4c3C2=O)NC(=O)/C(C)=C\C=C[C@H](C)[C@H](O)C(C)[C@@H](O)C(C)[C@H](OC(C)=O)[C@@H]1C` (stereo not given in full), the GI50 was > 75.3 µM (inactive) with ACHN; 44.4 µM (inactive) in the test on HCC 2998; 23.1 µM (inactive) in the test with HL-60; 71.4 µM (inactive) in the test with HOP-92; 21.6 µM (inactive) in the test with HT-29; 33.8 µM (inactive) in the test on IGROV-1. Besides, the GI50 in the test with K562 is 20.9 µM (inactive); in the test on MDA-MB-435, 27.5 µM (inactive); with OVCAR-4, 27.5 µM (inactive); in the test with PC-3, 17 µM (inactive); in the test with RXF 393, 48.3 µM (inactive); in the test with SF-295 it was > 100 µM (inactive). For the same compound, the GI50 in the test on SF-539 was 24.8 µM (inactive); with SK-MEL-28 it was 90.4 µM (inactive); in the test on SK-OV-3 it was > 100 µM (inactive); in the test with SN12C, 30.3 µM (inactive); with T47D, 26.7 µM (inactive); in the test on UACC-257 it was 21 µM (inactive). Besides, the GI50 with UACC-62 was 34.6 µM (inactive).

In the case of `NS(=O)(=O)c1ccc(NNc2c3ccccc3nc3c(C(=O)Nc4ccc(S(=O)(=O)Nc5ncccn5)cc4)cccc23)cc1`, the GI50 is > 25 µM (inactive) in the test with ACHN; > 25 µM (inactive) with HCC 2998; > 25 µM (inactive) in the test on HL-60; > 25 µM (inactive) in the test with HOP-92; 10.2 µM (inactive) with HT-29; > 25 µM (inactive) with IGROV-1. Further, the GI50 in the test on K562, in the test with MDA-MB-435, with OVCAR-4, in the test with PC-3, in the test on RXF 393 and with SF-295 was > 25 µM (inactive) in each case. For the same compound, the GI50 was > 25 µM (inactive) in the test with SF-539; 10.1 µM (inactive) with SK-MEL-28; > 25 µM (inactive) in the test on SK-OV-3; > 25 µM (inactive) in the test with SN12C; > 25 µM (inactive) in the test with T47D; > 25 µM (inactive) in the test on UACC-257. In the test on UACC-62, the GI50 is > 25 µM (inactive).

For the compound `CC(=O)C(=C(I)I)c1ccccc1`, the GI50 was 18.3 µM (inactive) in the test with ACHN; 24.5 µM (inactive) in the test with HCC 2998; 24.7 µM (inactive) in the test with HL-60; 37.2 µM (inactive) in the test on HOP-92; 17.9 µM (inactive) in the test with HT-29; 26.1 µM (inactive) in the test on IGROV-1. Further, the GI50 with K562 is 15 µM (inactive); in the test with MDA-MB-435 it was 14.6 µM (inactive); in the test with OVCAR-4, 16.1 µM (inactive); in the test with PC-3 it was 31.5 µM (inactive); in the test with RXF 393 it was 20 µM (inactive); with SF-295, 25.9 µM (inactive). Further, the GI50 was 21.1 µM (inactive) in the test with SF-539; 19.5 µM (inactive) in the test on SK-MEL-28; 41.9 µM (inactive) in the test on SK-OV-3; 13.3 µM (inactive) in the test on SN12C; 20.4 µM (inactive) with T47D; 16.7 µM (inactive) in the test on UACC-257. Also, the GI50 in the test with UACC-62 was 25.5 µM (inactive).

Turning to `c1csc(-c2ccsc2-c2ccsc2)c1`, the GI50 in the test on ACHN is > 100 µM (inactive); in the test with HCC 2998 it was 28.3 µM (inactive); in the test with HL-60 it was 33.1 µM (inactive); with HOP-92, > 100 µM (inactive); in the test with HT-29 it was > 100 µM (inactive); in the test with IGROV-1, > 100 µM (inactive). The GI50 in the test on K562 was 73.8 µM (inactive); with MDA-MB-435 it was 39.3 µM (inactive); in the test on OVCAR-4, 84.1 µM (inactive); with PC-3, 41.3 µM (inactive); in the test on RXF 393, 25.6 µM (inactive); in the test on SF-295 it was 57.4 µM (inactive). For the same compound, the GI50 with SF-539, with SK-MEL-28, in the test on SK-OV-3, in the test with SN12C, with T47D and with UACC-257 was > 100 µM (inactive) in each case. The GI50 in the test with UACC-62 was > 100 µM (inactive).

`Brc1ccc2c([C@H]3CN[C@@H](c4c[nH]c5cc(Br)ccc45)CN3)c[nH]c2c1`: the GI50 is 2.94 µM (inactive) with ACHN; 1.62 µM (inactive) in the test with HCC 2998; 1.95 µM (inactive) with HL-60; 3.24 µM (inactive) in the test on HOP-92; 1.92 µM (inactive) in the test on HT-29; 3.19 µM (inactive) with IGROV-1. The GI50 with K562 was 1.74 µM (inactive); with MDA-MB-435 it was 1.72 µM (inactive); in the test with OVCAR-4 it was 1.9 µM (inactive); in the test with PC-3 it was 3.9 µM (inactive); in the test with RXF 393, 2.4 µM (inactive); in the test with SF-295 it was 7.1 µM (inactive). The GI50 with SF-539 was 2.89 µM (inactive); in the test on SK-MEL-28, 14.2 µM (inactive); in the test with SK-OV-3, 8.99 µM (inactive); in the test on SN12C, 5.19 µM (inactive); in the test on T47D it was 5.47 µM (inactive); in the test on UACC-257 it was 14.9 µM (inactive). Also, the GI50 with UACC-62 was 9.82 µM (inactive).

Consider `Cn1c2c3ccc(Cl)cc3nc-2c(Cl)c2ccccc21`, for which the GI50 with ACHN was 13.5 µM (inactive); in the test with HCC 2998 it was 5.38 µM (inactive); in the test with HL-60, 24.2 µM (inactive); with HOP-92 it was 15.7 µM (inactive); with HT-29 it was 15.3 µM (inactive); with IGROV-1, 16.6 µM (inactive). Moreover, the GI50 was 6.01 µM (inactive) in the test with K562; 18.1 µM (inactive) in the test on MDA-MB-435; 17.1 µM (inactive) in the test on OVCAR-4; 13.7 µM (inactive) in the test on PC-3; 16.6 µM (inactive) in the test on RXF 393; 15.2 µM (inactive) in the test with SF-295. The GI50 is 19.9 µM (inactive) in the test with SF-539; 17.7 µM (inactive) in the test with SK-MEL-28; 49.4 µM (inactive) in the test on SK-OV-3; 14.4 µM (inactive) in the test with SN12C; 11.9 µM (inactive) with T47D; 17.5 µM (inactive) in the test with UACC-257. Moreover, the GI50 in the test with UACC-62 is 20.4 µM (inactive).

`O=C1/C(=C\c2ccccc2)c2ccccc2N1Cc1ccccc1`: the GI50 was 12.5 µM (inactive) in the test on ACHN; 11.8 µM (inactive) in the test with HCC 2998; 4.08 µM (inactive) in the test with HL-60; 3.85 µM (inactive) in the test on HOP-92; 6.15 µM (inactive) in the test with HT-29; 10.7 µM (inactive) in the test on IGROV-1. Also, the GI50 in the test with K562 was 2.88 µM (inactive); in the test with MDA-MB-435 it was 3.72 µM (inactive); with OVCAR-4 it was 12.6 µM (inactive); with PC-3, 11.1 µM (inactive); in the test with RXF 393 it was 10.4 µM (inactive); with SF-295 it was 11.4 µM (inactive). Moreover, the GI50 is > 10 µM (inactive) with SF-539; 11.1 µM (inactive) in the test with SK-MEL-28; 11.1 µM (inactive) with SK-OV-3; 11.9 µM (inactive) in the test with SN12C; 6.61 µM (inactive) in the test on T47D; 10.9 µM (inactive) with UACC-257. The GI50 with UACC-62 is 7.1 µM (inactive).

Regarding `CCOCC(=O)N[C@H]1CCc2cc(OC(=O)COCC)c(OC)c(OC)c2-c2ccc(SC)c(=O)cc21`, the GI50 with ACHN is 0.0655 µM (active); with HCC 2998 it was 0.0264 µM (active); with HL-60, 0.00473 µM (active); in the test on HOP-92, 0.0248 µM (active); in the test on HT-29, 0.0177 µM (active); in the test with IGROV-1, 0.0324 µM (active). The GI50 in the test on K562 is 0.0126 µM (active); with MDA-MB-435 it was 0.00195 µM (active); in the test on OVCAR-4 it was 10.5 µM (inactive); with PC-3 it was 0.0224 µM (active); with RXF 393, 0.021 µM (active); in the test with SF-295, 0.0157 µM (active). In addition, the GI50 is 0.0172 µM (active) with SF-539; 0.0143 µM (active) in the test with SK-MEL-28; 0.00867 µM (active) with SK-OV-3; 0.0625 µM (active) in the test on SN12C; > 10 µM (inactive) in the test with T47D; 0.00902 µM (active) in the test with UACC-257. For the same compound, the GI50 in the test on UACC-62 is 0.0102 µM (active).

Take `COc1ccc(OC)c(C2CCc3nc4nc(N)nc(N)c4cc3C2)c1` (stereo not given): the GI50 in the test on ACHN was 12 µM (inactive); in the test with HCC 2998 it was 1.74 µM (inactive); in the test with HL-60, 2.64 µM (inactive); in the test on HOP-92, 2.19 µM (inactive); with HT-29, 3.01 µM (inactive); in the test on IGROV-1, 10.2 µM (inactive). Moreover, the GI50 with K562 was 2.31 µM (inactive); in the test with MDA-MB-435 it was 2.04 µM (inactive); in the test with OVCAR-4, 2.07 µM (inactive); in the test on PC-3 it was 3.56 µM (inactive); with RXF 393, 2.69 µM (inactive); with SF-295, 11.7 µM (inactive). Besides, the GI50 was 3.01 µM (inactive) with SF-539; 2.4 µM (inactive) with SK-MEL-28; 4.1 µM (inactive) in the test on SK-OV-3; 1.77 µM (inactive) in the test on SN12C; 1.94 µM (inactive) in the test with T47D; 2.48 µM (inactive) with UACC-257. In addition, the GI50 in the test with UACC-62 was 2.03 µM (inactive).

(Values after ChEMBL document CHEMBL1201862, “PubChem BioAssay data set” (2004).)
